According to patent US20250319172A1, “ANTICANCER VACCINE COMPOSITION COMPRISING HSP90 ANTIGENIC PEPTIDE AND USE THEREOF” (ASTON SCI. INC., priority 2021, published 2025):

Test system: HSP90 antigenic peptide-specific IFN-γ production in spleen cells
Test: IFN-γ ELISpot of splenocytes after test vaccination (Th1 immune response), Example 1
Format: in vivo, C57BL/6 mice
Conditions: antigen HSP90 peptide of SEQ ID NO: 1; s.c. three times every 10 days; splenocytes 10 days after last inoculation; FIG. 1A
Experimental: To analyze the efficacy of antigenic peptides selected from HSP90 (see Table 1) and various adjuvants and liposomes, test vaccines were prepared with the compositions in Table 2 and Table 3. In the case of G6 and G7 formulations, since a liposome is included in the formulations, the drug release rate is slowed, and in this regard, the amount of antigenic peptide was reduced to 20% when preparing the test vaccine. The prepared test vaccine G to G7 formulations were immunized using C57BL/B6 mice (female, 7 weeks old), 4 mice per group. […]
The test vaccine was inoculated with each vaccine formulation by subcutaneous injection three times every 10 days for 4 mice in each group, and splenocytes were isolated from the spleens of mice sacrificed 10 days after the last inoculation, the specific response to each HSP90 antigenic peptide was measured through the ELISpot method for IFN-γ or IL-10 stimulated by the HSP90 antigenic peptide (stimulant) of SEQ ID NO: 1 or SEQ ID NO: 2 according to the previously known method by Disis et al. (J Clin Oncol. 2009 Oct. 1; 27 (28): 4685-92).
If HSP90 antigenic peptide-specific IFN-γ production increased in spleen cells measured by the ELISpot method after test vaccination, the Th1 immune response was considered activated, and if the HSP90 antigenic peptide-specific IL-10 production increased, the Th2 immune response was considered activated.

## LYVRRVFIMDNCEEL [SEQ ID NO: 1, HSP90 antigenic peptide, region p485-499 of HSP90]
  HSP90-specific Th1 immune response (IFN-γ ELISpot): effectively induces HSP90-specific T cell immune response
